According to PMC7788351 (The Journal of Pharmacology and Experimental Therapeutics, 2021):
Counter-ions that a name gives are not always drawn.

How the values were obtained:
[1] = biological target: 5-HT2B (Homo sapiens, UniProt P41595); conditions: ref Schindler et al., 2019; cited from earlier work
[2] = test system: humans; conditions: ref Chait et al., 1985; cited from earlier work
[3] = biological target: T1, α2C (Homo sapiens, UniProt P18825); conditions: ref Schindler et al., 2019; cited from earlier work
T1 sequence (P18825 1-462): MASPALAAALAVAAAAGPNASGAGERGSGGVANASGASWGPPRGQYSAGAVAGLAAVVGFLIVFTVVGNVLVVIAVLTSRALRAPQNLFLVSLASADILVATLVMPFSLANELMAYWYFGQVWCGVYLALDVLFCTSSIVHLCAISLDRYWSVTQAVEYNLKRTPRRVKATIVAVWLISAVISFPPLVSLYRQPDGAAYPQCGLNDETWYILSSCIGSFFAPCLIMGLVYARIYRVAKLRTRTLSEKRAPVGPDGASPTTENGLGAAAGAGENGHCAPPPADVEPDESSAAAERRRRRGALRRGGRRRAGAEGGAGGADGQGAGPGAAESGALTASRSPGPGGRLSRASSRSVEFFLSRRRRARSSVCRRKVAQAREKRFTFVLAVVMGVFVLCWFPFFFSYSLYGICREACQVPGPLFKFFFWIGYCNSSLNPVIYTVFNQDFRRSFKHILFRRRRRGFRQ

[4] = biological target: T2, α2A (Homo sapiens, UniProt P08913); conditions: ref Schindler et al., 2019; cited from earlier work
T2 sequence (P08913 1-465): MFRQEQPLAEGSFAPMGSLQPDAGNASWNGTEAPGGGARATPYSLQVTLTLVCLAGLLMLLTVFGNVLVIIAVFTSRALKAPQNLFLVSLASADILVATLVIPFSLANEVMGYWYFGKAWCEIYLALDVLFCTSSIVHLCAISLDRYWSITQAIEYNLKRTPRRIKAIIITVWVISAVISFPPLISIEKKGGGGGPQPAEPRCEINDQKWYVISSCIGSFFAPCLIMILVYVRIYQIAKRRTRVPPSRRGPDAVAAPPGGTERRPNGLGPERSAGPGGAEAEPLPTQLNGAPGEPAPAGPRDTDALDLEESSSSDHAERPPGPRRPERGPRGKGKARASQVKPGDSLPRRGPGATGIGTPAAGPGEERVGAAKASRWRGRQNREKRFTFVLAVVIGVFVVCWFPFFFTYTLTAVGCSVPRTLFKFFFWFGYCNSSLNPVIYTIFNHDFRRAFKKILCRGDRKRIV

[5] = test system: humans; conditions: ref Brauer and de Wit, 1996, Kelly et al., 2006, Harvanko et al., 2016; cited from earlier work
[6] = biological target: T3, 5-HT1A (Homo sapiens, UniProt P08908); conditions: ref Schindler et al., 2019; cited from earlier work
T3 sequence (P08908 1-422): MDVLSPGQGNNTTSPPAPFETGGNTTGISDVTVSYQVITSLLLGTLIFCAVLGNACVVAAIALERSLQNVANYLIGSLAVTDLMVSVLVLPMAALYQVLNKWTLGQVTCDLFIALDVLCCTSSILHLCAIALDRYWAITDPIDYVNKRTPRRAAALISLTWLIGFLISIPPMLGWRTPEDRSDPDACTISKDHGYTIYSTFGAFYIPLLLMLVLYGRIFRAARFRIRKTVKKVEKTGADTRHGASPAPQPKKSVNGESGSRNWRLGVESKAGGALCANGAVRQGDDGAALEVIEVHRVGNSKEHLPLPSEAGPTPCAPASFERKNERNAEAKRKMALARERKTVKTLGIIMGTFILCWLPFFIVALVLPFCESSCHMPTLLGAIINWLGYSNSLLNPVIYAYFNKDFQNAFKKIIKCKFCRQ

[7] = test system: male Sprague-Dawley rats; assay: In vivo biotelemetry; conditions: s.c., amphetamine 0.1–3 mg/kg, PEA analogs 1–10 mg/kg
[8] = test system: rats; conditions: ref Schindler et al., 2019, cited from earlier work

Sequence of 5-HT2B (P41595 whole entry): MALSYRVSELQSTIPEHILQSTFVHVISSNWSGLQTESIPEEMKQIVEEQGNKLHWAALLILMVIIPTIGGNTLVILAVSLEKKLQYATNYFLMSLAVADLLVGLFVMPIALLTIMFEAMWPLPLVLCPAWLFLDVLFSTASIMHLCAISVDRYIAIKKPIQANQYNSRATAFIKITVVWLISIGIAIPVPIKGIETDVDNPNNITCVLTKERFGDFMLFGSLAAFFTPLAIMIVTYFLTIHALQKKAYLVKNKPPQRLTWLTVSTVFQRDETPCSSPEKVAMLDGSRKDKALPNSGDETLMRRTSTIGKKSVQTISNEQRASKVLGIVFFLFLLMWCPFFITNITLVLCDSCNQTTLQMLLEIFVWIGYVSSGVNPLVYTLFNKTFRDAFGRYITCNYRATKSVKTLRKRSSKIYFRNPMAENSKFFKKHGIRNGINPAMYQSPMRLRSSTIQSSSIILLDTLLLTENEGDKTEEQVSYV

Compound	Ki [1] [nM]	threshold oral dose that can be discriminated [2] [mg]	Ki [3] [nM]	Ki [4] [nM]	lowest oral doses that increase BP and HR [5] [mg]	Ki [6] [nM]	effect on core body temperature [7]	effect on HR or activity ([8]; at the doses tested)	reduction of potency to increase BP compared with amphetamine [8]
C[C@H](N)Cc1ccccc1 [Amphetamine, (S)-amphetamine sulfate]	971	5	171	420	7.5 to 10	2630	did not significantly affect body temperature	–	–
CC(CN)c1ccccc1 (stereo not drawn) [BMPEA, β-methylphenethylamine]	–	–	–	–	–	–	–	did not increase HR or activity	about 30 fold
